Measured values from patent US20250034216A1, “STEREOSELECTIVE COVALENT LIGANDS FOR ONCOGENIC AND IMMUNOLOGICAL PROTEINS” (The Scripps Research Institute, priority 2021, published 2025).

Molecular target: T1, NSD2_C1018 (Homo sapiens, UniProt O96028)
T1 construct: endogenous in cells; host or cells: 22Rv1
T1 sequence (O96028 1-1365): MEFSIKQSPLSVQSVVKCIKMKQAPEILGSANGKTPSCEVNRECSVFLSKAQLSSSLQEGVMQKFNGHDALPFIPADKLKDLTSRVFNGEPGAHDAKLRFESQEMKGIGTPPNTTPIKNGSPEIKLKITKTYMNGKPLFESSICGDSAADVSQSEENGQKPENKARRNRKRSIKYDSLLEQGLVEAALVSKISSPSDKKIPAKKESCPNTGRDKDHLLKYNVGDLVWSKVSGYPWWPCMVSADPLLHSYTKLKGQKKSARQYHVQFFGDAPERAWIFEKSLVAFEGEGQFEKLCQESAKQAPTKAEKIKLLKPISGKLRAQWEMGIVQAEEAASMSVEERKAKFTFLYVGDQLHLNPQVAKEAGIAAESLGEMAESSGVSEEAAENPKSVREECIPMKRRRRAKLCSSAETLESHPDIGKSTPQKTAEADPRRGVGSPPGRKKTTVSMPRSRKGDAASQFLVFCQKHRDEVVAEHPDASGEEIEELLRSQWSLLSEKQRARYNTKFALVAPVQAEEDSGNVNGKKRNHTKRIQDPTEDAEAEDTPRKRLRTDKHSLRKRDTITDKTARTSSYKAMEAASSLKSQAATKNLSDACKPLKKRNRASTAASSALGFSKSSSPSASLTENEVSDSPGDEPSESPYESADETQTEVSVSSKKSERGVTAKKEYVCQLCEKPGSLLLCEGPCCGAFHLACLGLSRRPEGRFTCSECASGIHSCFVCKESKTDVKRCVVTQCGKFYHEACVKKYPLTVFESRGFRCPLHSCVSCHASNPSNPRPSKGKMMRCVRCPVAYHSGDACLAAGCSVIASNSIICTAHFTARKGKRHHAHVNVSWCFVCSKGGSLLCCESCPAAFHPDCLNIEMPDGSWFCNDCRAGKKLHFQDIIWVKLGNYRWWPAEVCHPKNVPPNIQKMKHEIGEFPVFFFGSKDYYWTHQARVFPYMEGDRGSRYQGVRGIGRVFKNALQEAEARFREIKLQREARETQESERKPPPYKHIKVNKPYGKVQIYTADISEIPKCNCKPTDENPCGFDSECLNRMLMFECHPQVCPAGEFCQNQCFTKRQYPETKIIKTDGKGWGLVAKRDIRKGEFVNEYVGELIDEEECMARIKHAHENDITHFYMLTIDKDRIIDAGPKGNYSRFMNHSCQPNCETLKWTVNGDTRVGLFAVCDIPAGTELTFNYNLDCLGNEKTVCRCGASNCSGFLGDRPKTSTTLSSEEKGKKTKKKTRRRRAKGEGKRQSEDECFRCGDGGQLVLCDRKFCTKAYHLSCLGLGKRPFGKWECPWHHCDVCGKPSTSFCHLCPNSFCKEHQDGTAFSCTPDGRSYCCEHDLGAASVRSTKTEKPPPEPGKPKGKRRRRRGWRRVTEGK
Experiment: IA-DTB cysteine engagement
Format: binding
Conditions: 22Rv1 cells, 20 μM probe, 1 h, relative to DMSO
Procedure: Sample preparation: Cells (adherent: 15 cm dishes, suspension: 2 million cells/mL) were treated with electrophilic probes in situ for indicated times and concentrations, washed with ice-cold PBS, and flash frozen in liquid nitrogen. Cell pellets were lysed by sonication (8 pulses, 40% power) in 500 μL ice-cold PBS supplemented with cOmplete protease inhibitors (1 tablet/10 mL of PBS). Whole cell lysates protein content was measured using a standard DC protein assay (Bio-Rad) and 500 μL (2 mg/mL protein content) were treated with 5 μL of 10 mM 1A-DTB (in DMSO) for 1 h at ambient temperature with occasional vortexing. Samples were methanol-chloroform precipitated with the addition of 500 μL ice-cold MeOH and 200 μL CHCl3, vortexed, and centrifuged (10 min, 10,000 g). Without disrupting the protein disk, both top and bottom layers were aspirated and the protein disk was washed with 1 mL ice-cold MeOH and centrifuged (10 min, 10,000 g). The pellets were allowed to air dry, and then re-suspended in 90 μL buffer (9 M urea, 10 mM DTT, 50 mM TEAB pH 8.5). Samples were reduced by heating at 65 C for 20 minutes and water bath sonicated as needed to resuspend the protein pellets, followed by alkylation via addition of 10 μL (500 mM) iodoacetamide and incubated at 37 C for 30 min with shaking. Samples were briefly centrifuged, and probe sonicated once more to ensure complete resuspension, and then diluted with 300 μL buffer (50 mM TEAB pH 8.5) to reach final concentration of 2 M urea. Trypsin (4 μL of 0.25 μg/μL in trypsin resuspension buffer with 25 mM CaCl2)) was added to each sample and digested at 37 C for 2 h to overnight. Digested samples were then diluted with 300 μL wash buffer (50 mM TEAB pH 8.5, 150 mM NaCl, 0.2% NP-40) containing streptavidin-agarose beads (50 μL of 50% slurry in wash buffer) and were rotated at room temperature for 2 hours. Enriched samples were pelleted by centrifugation (2000 g, 2 min) and transferred to BioSpin columns and washed (3×1 mL wash buffer, 3×1 mL PBS, 3×1 mL water). Enriched peptides were eluted by 300 μL 50% acetonitrile with 0.1% formic acid and eluate was evaporated to dryness via speedvac. IA-DTB labeled and enriched peptides were resuspended in 100 μL EPPS buffer (200 mM, pH 8.0) with 30% acetonitrile, vortexed, and water bath sonicated. Samples were TMT labeled with 3 μL of corresponding TMT tag (5 mg tag resuspended in 256 μL acetonitrile), vortexed, and incubated at room temperature for 1 hour. TMT labeling was quenched with the addition of hydroxylamine (5 μL 5% solution in H2O) and incubated for 15 minutes at room temperature. Samples were then acidified with 5 μL formic acid, combined and dried using a SpeedVac. Samples were desalted via Sep-Pak and then high pH fractionated.
Data processing: Cysteine engagement ratios (probe vs DMSO) were calculated for each peptide-spectra match by dividing each TMT reporter ion intensity by the average intensity for the channels corresponding to DMSO treatment. Peptide-spectra matches were then grouped based on protein ID and residue number (e.g., PSME1 C22), excluding peptides with summed reporter ion intensities for the DMSO channels <10,000, coefficient of variation for DMSO channels >0.5, and non-tryptic peptide sequences. TMT reporter ion intensities were normalized to the median summed signal intensity across channels.
Filtering of cysteine data: Replicates were combined based on cell line and treatment condition (probe, concentration, duration) by averaging cysteine engagement ratios across all experiments.

How did the “% engagement NSD2_C1018” value turn out when `C=CC(=O)N1C[C@@H](c2ccc(Br)cc2)[C@H]1C(=O)Nc1cccc2cccnc12` [MY-1A, (2S,3R)-1-acryloyl-3-(4-bromophenyl)-N-(quinolin-8-yl)azetidine-2-carboxamide] was run?
The value was 16.5%.

With `C=CC(=O)N1C[C@H](c2ccc(Br)cc2)[C@@H]1C(=O)Nc1cccc2cccnc12` [MY-1B, (2R,3S)-1-acryloyl-3-(4-bromophenyl)-N-(quinolin-8-yl)azetidine-2-carboxamide] as the molecule, how does the “% engagement NSD2_C1018” value read?
The value was 43.75%.

Which “% engagement NSD2_C1018” value does the source give for `C=CC(=O)N1C[C@H](c2ccc(Br)cc2)[C@H]1C(=O)Nc1cccc2cccnc12` [MY-3A, (2S,3S)-1-acryloyl-3-(4-bromophenyl)-N-(quinolin-8-yl)azetidine-2-carboxamide] here?
Its value is 36.75%.

For `C=CC(=O)N1C[C@H](c2ccc(Br)cc2)[C@H]1C(=O)Nc1cccc2cccnc12` [MY-3B, (2S,3S)-1-acryloyl-3-(4-bromophenyl)-N-(quinolin-8-yl)azetidine-2-carboxamide], which “% engagement NSD2_C1018” value is on record?
The value was 67%.
